Values quoted from earlier work, collected in patent US12419890B2, “Administration of sumo-activating enzyme inhibitor and checkpoint inhibitors” (Takeda Pharmaceutical Company Limited, priority 2019, dated 2025).
Like-named read-outs stand apart in the source and are kept apart here.

How the values were obtained:
[1] = tested on: metastatic CRC; details: stated jointly for both drugs; cited from earlier work
[2] = tested on: MSI-H CRC; details: MSI-H CRC patients that progressed to fluoropyrimidine, oxaliplatin, and irinotecan containing regimens; cited from earlier work
[3] = tested on: advanced NSCLC; details: cited from earlier work
[4] = tested on: advanced cervical cancer, PD-L1 CPS>=1; details: cited from earlier work
[5] = tested on: recurrent or metastatic cervical cancer; details: cited from earlier work
[6] = 200 mg IV every three weeks, 77 patients

## trifluridine-tipiracil
[1]
  median OS: 7 months
  median PFS: 2 months

## CNC(=O)c1cc(Oc2ccc(NC(=O)Nc3ccc(Cl)c(C(F)(F)F)c3)c(F)c2)ccn1 [regorafenib]
[1]
  median OS: 7 months
  median PFS: 2 months

## nivolumab
[2]
  ORR: 28%
  responders whose DOR lasted more than six months: 67%

## pembrolizumab
[3]; previously treated patients, PD-L1 expression 1 to 49%
  5-year OS rate: 12.6%
[3]; previously treated patients, PD-L1 expression <1%
  5-year OS rate: 3.5%
[3]; previously treated patients, PD-L1 expression >=50%
  5-year OS rate: 25%
[3]; treatment-naive patients with PD-L1 expression >=50%
  5-year OS rate: 29.6%
[3]; treatment-naive patients, PD-L1 <50%
  5-year OS rate: 15.7%
[4]; [6]
  complete responses (CRs): 2.6%
  partial responses (PRs): 11.7%
[4]; 200 mg IV every three weeks, 77 patients, median follow-up 11.7 months, 95% CI 7.4, 24.1
  overall response rate (ORR): 14.3%
[4]; 11 patients with a response by independent review
  estimated median duration of response (DOR): not reached
[4]; 11 patients with a response
  responders with a DOR of greater than or equal to 6 months: 91%
[2]
  ORR: 36%
  responders whose DOR lasted more than six months: 78%

## bevacizumab
[5]; bevacizumab added to standard first line chemotherapy vs chemotherapy alone, 95% CI 0.54-0.82
  HR for PFS: 0.67
[5]; bevacizumab added to standard first line chemotherapy vs chemotherapy alone, 95% CI 0.54-0.95
  HR for OS: 0.71
[5]; bevacizumab added to standard first line chemotherapy, vs 5.9 months chemotherapy alone
  median PFS: 8.2 months
[5]; bevacizumab added to standard first line chemotherapy, vs 13.3 months chemotherapy alone
  median OS: 17.0 months
